The values below come from patent publication US8148392B2, “2-indolyl imidazo [4,5-d] phenanthroline derivatives and their use in the treatment of cancer” (Lorus Therapeutics Inc., priority 2005, dated 2012).

A word on the IC50: it is the concentration that inhibits the measured activity by half.

The structures appear in SMILES notation. Entries after “also recorded” stand apart in the source; their conditions may differ. Read-outs that look alike come from different tables or passages of the source.

One data set relates to supercoiled plasmid DNA. Description: In vitro DNA cleavage assay. Type of data set: biochemical. As to the method: Compound 3 was tested for its ability to cleave plasmid DNA in vitro in the presence of copper and the reducing agent ascorbic acid. Experiments were performed in a total of 20 μl, containing 10 mM NaH2PO4/Na2HPO4 buffer (pH 6.7), 1 μg of supercoiled plasmid DNA, 100 μM ascorbic acid, 25 μM drug compound (or vehicle), and 10 μM of CuSO4.5H20. The reaction mixture was incubated at 37° C. for 30 minutes, and 1 μl of 0.1 M EDTA was added to terminate the reaction. DNA loading buffer was added, and reactions were run at 80V for 80 minutes on a 1% agarose gel containing ethidium bromide.
To determine whether ions other than copper could suffice, DNA cleavage reactions were also carried out in the presence of zinc or iron. Reactions were performed as above, in the presence of 25 μM of CuSO4.5H20, ZnCl2, or FeCl2.4H20. […] Note that copper alone in the presence of ascorbic acid can shift the ratio of supercoiled DNA to open circular DNA.
To determine the ratios of compound to copper at which compound 3 was effective, reactions were performed as in FIG. 22A. The ratios of compound 3 to copper of 3:1, 2.5:1, 2:1, 1.5:1, and 1:1, as shown in FIG. 23 were achieved by maintaining the concentration of Cu constant at 10 μM, and varying the concentration of compound 3. The ratios of compound 3 to Cu of 1:1.5, 1:2, 1:2.5, and 1:3, were achieved by maintaining the concentration of compound 3 constant at 10 μM, and varying the concentration of copper.
Other compounds of Formula I, compounds 5, 7, 9 and 13 were also tested for their ability to cleave DNA at a ratio of 2.5:1 to copper (FIG. 23). Ratios of compound 3:copper as indicated, plus concentrations of copper in the absence of compound 3 were used in the DNA cleavage assay as described above.

Data set [1] concerns human colon carcinoma HT-29 cells. Description: XTT cell proliferation assay, HT-29. Type of data set: cell-based. Particulars: Homo sapiens, HT-29, XTT, read-out: IC50. As to the method:
The ability of compounds of Formula I to inhibit the proliferation of human colon carcinoma HT-29 cells was tested as follows. HT-29 colon carcinoma cells used in this example and subsequent examples were maintained as a monolayer in a growth medium; McCoy's 5A modified medium (Sigma, St. Louis, Mo.), supplemented with 2 mM L-glutamine (Gibco, Grand Island, N.Y.), 10% fetal bovine serum (FBS) (Multicell, WISENT Inc. St-Bruno, QC), antibiotic-antimycotic (Multicell), at 37° C. in a 5% CO2-humidified incubator. Cells were transferred onto 150 mm tissue culture plates and grown until sub-confluency (70-80%) prior to their use. The in vitro antiproliferative activity of compounds was evaluated by incubating the cells with varying concentrations of the compounds as shown in Table 1 for 6-7 days. The efficacy of these compounds in this cell proliferation assay was measured based in the ability of live cells to reduce the tetrazolium salt XTT to orange colored compounds of formazan (XTT cell proliferation kit II, Roche Applied Science, Montreal, QC).
The ability of compounds of Formula I to inhibit the proliferation of human colon carcinoma HT-29 cells was tested as described above in Example 13.
Cell growth inhibition IC50 (μM) by compounds of Formula I was tested on various cancer cell types by XTT cell proliferation assay. The growth inhibitory effects of the compounds of Formula I as shown below for the melanoma cell line SK-MEL-2 were reproducible by Lorus Therapeutics Inc.
(Tetrazolium assays rely on reduction of a dye to a coloured formazan, in cell work by metabolically active cells.)

Data set [2] is classed as in vivo. To be noted: i.p. twice per day for 1 week. As to the method: To test the sub-acute toxicity of the compounds of Formula I, female mice were injected with the compounds and toxicity was evaluated based on mortality, changes in behaviour, appearance and weight. Briefly, ICR normal female mice (5-6 weeks old; n=33) weighing about 0.020 kg in body weight, were injected with various compounds at 100 mg/kg and 50 mg/kg or with the vehicle alone (Lutrol (M68, micronized)). Groups of 3 ICR female mice were injected with one intra-peritoneal (i.p.) injection of 250 μl of each compound at 4.0 mg/ml twice per day (100 mg/kg) for 1 week (Group I); or with one intra-peritoneal (i.p.) injection of 250 μl of each compound at 2.0 mg/ml twice per day (50 mg/kg) for 1 week (Group II), or with one intra-peritoneal (i.p.) injection of 250 μl of lutrol vehicle control twice per day for 1 week (Control Group).
The compounds to be tested were prepared to provide enough for one week at concentrations of 4.0 mg/ml and 2.0 mg/ml. Briefly, 50 mg of each compound was dissolved in 1.25 ml of 100% DMSO and diluted with 6.25 ml of Lutrol (30% in water) and 5 ml water, to prepare a solution of 4 mg/ml compound in 15% Lutrol in water. Next, 4 ml of each prepared solution was further diluted with 4 ml of 15% Lutrol in water to provide the 2.0 mg/ml solution of each compound. For the vehicle control solution, 8 ml of 15% Lutrol in water was prepared. Compounds at concentrations of 4.0 mg/ml and 2.0 mg/ml and the vehicle control were administered as described above.

In the next data set the test system is HT-29 cells. Description: Effect of exogenous metals on growth inhibition of HT-29 cells (XTT). Type of data set: cell-based, human. Particulars: HT-29, 5 days. The method, then: To determine whether metal chelation is involved in the growth inhibitory activity of compounds of Formula I, exogenous metals (ZnCl2, FeCl2.4H2O, FeCl3.4H2O, MgCl2, at 100 μM) were incubated with HT-29 cells, simultaneously with control vehicle DMSO, compound 3 (5 μM), or compound 13 (25 μM), for 5 days. […] Growth inhibition by compound 13 is predicted to occur through a different mechanism than compound 3.
To determine whether chelation of copper is involved in the growth inhibitory activity of compounds of Formula I, HT-29 cells were incubated with up to 5 μM of compound 3, in the presence or absence of 25 μM CuSO4.5H20 for 5 days.
To determine whether metal chelation is involved in the growth inhibitory activity of compound 3, various concentrations of exogenous metals were incubated with HT-29 cells, simultaneously with various concentrations of compound 3, for 5 days. The exogenous metals tested were: ZnCl2 (zinc), CuSO4.5H20 (copper), FeCl2 (iron II), FeCl3.4H20 (iron III), MgCl2 (magnesium), and CaCl2.2H20 (calcium). HT-29 cells (4×10^3/well) in 100 μL volume of the growth medium were seeded in 96-well cell culture plates and incubated overnight at 37° C. The medium was removed and replaced with a total volume of 100 μl growth medium containing concentrations of metal ions as shown in FIG. 5 with compound 3 or 0.1% DMSO vehicle control. After incubation of the cells at 37° C. for 5 days, cell viability was quantitated using the XTT (sodium 3′-[1-(phenylamino-carbonyl)-3,4-tetrazolium}-bis (4-methoxy-6-nitro) benzene sulfonic acid hydrate) calorimetric assay (Roche Applied Science, Penzberg, Germany). XTT labeling reagent (1 mg/mL) was mixed with electron-coupling reagent, following the manufacturer's instructions, and 50 μl of the mixture was added directly to the cells cultured in 100 μl growth medium. The plates were further incubated at 37° C. for 4 hours and the absorbance of each well was measured by a multi-well spectrophotometer (Bio-Tek Instruments Inc.) at 460 nm. The data were adjusted relative to the blank, and were expressed as % of cell growth compared to the DMSO control.
To determine the ability of compounds 5 and 7 to chelate metals in cells, exogenous metals were added to HT-29 cells, simultaneously with various concentrations of compounds 5 and 7. Briefly, HT-29 cells were treated with various concentrations compounds 5 and 7, plus or minus copper (25 μM CuSO4.5H20) or zinc (100 μM of ZnCl2), for 5 days. Cell viability was determined by XTT assay. The effects of copper and zinc on growth inhibition of HT-29 cells are shown in FIG. 6A for compound 5 and in FIG. 6B for compound 7.
Effect of metal ion supplements on compound 3-mediated cell growth inhibition of HT-29 cells was examined by XTT cell proliferation assay.

The test system of data set [3] is human lung NCI-H460 cells. Description: Large-cell lung carcinoma NCI-H460 xenograft model, tumour growth. Type of data set: in vivo, CD-1 female nude mice. Particulars: Lutrol (i.p.), lipid-based (i.v.) or water-based (i.p.) formulations. As to the method: The ability of compounds of Formula I to inhibit large-cell lung tumour growth in vivo was tested by determining the efficacy of compound 3 in a xenograft model as described below. Compound 3 was tested as a lipid-based formulation having the following composition: distearoylphosphatidylethanolamine-polyethylene glycol 2000 (DSPE-PEG/5% mole) and egg phosphatidylcoline (ePC/95% mole). The formulation was prepared as follows: Stock solutions of compound 3 and lipid (ePC and DSPE-PEG) were prepared in DMF. Specific volumes of the stock solutions of compound 3 and lipid were then mixed in order to achieve a final lipid concentration of 25 mg/mL (ePC:DSPE-PEG=95:5 (mol %) and a compound 3 to total lipid ratio of 1:10 (w/w). The mixture was stirred for four hours, thoroughly dried under nitrogen and left overnight under vacuum. HEPES buffer saline (HBS 0.01 M, pH=7.4) warmed to 60° C. was then added in order to rehydrate the dried film. The solutions were vortexed, stirred for 48 hours at room temperature and sonicated for two and half hours. The formulation was then centrifuged at 1000 rpm for 5 minutes to remove any free compound 3.
CD-1 female nude mice (6-7 weeks, 7 mice per treatment group) were injected […] with human lung NCI-H460 cells (3×10^6 cells in 0.1 ml PBS) subcutaneously. Treatment of the mice with vehicle or compound 3 was initiated 5 days post-inoculation (size of tumours=20-40 mm^3) for 7-day cycles of five days followed by a 2 day break for the duration of the experiment (35 days). Mice were treated with 80 mg/kg/d for the first week followed by 40 mg/kg/d until the end of the experiment. The size of the tumours was measured over the course of the experiment using calipers, and the weight of the tumours was measured after the animals were sacrificed.
The ability of compounds 3, 5, and 7 to inhibit large-cell lung carcinoma cell growth in vivo was tested in the mouse xenograft model as described in Example 27. The compounds were tested as Lutrol formulations (administered i.p.), lipid-based formulations micelles (administered i.v.), or water-based formulations (administered i.p.). The vehicle controls included Lutrol control (administered i.p.), lipid micelle control (administered i.v.), and water control (administered i.p.). Lutrol formulations contained 15% Lutrol and 10% DMSO. The composition of the lipid-based formulations and preparation of same was as described in Example 27 above.

[4] abbreviates: 25 μM compound, 10 μM CuSO4, 100 μM ascorbic acid, 37° C., 30 minutes.

With `c1cnc2c(c1)ccc1cccnc12` [1,10-phenanthroline (OP), 1,10-phenanthroline, reference compound], the “cleavage of plasmid DNA” value with supercoiled plasmid DNA (setting [4]) was “able to cleave plasmid DNA”; in the data set with supercoiled plasmid DNA (absence of copper or reducing agent), “Neither compound 3 nor OP was able to cleave DNA”.

With `c1ccc2c(-c3nc4c5cccnc5c5ncccc5c4[nH]3)c(-c3ccncc3)[nH]c2c1` [Compound 11], the IC50 in data set [1] (6-7 days, Table 3) was above 2500 nM; in data set [1] (as Example 13, Table 7), above 2.5 µg/mL. Moreover, the Sub-acute toxicity result in data set [2] (50 mg/Kg) is reported as “−”; in data set [2] (100 mg/Kg) it was “+”.

In the case of `c1ccc2c(-c3nc4c5cccnc5c5ncccc5c4[nH]3)c(CN3CCCCC3)[nH]c2c1` [Compound 12], the IC50 in data set [1] (6-7 days, Table 3) amounted to 280 nM; in data set [1] (as Example 13, Table 7) it was 0.28 µg/mL. Besides, in the data set on supercoiled plasmid DNA (setting [4]), the “cleavage of plasmid DNA” value was “capable of cleaving DNA”. Moreover, the Sub-acute toxicity result is listed as “−” in data set [2] (50 mg/Kg) and “+” in data set [2] (100 mg/Kg).

On to `Cc1[nH]c2ccccc2c1-c1nc2c3ccccc3c3ccccc3c2[nH]1` [Compound 13, reference compound], for which, in the data set with HT-29 cells (compound 13 25 μM), the “effect of exogenous metals on activity of the negative control” value is “None of the metals had any effect; also recorded: Copper had no effect on growth inhibition”. Moreover, the “cleavage of plasmid DNA” value with supercoiled plasmid DNA (setting [4]) is “unable to cleave DNA”.

With `Cc1[nH]c2ccc(Cl)cc2c1-c1nc2c3cccnc3c3ncccc3c2[nH]1` [Compound 5], the “tumour size and weight” value in data set [3] is “able to decrease the size (FIG. 16A) and weight (FIG. 16B) of tumours”. Further, in the data set with HT-29 cells (25 μM CuSO4, low concentrations of compound (less than 2 μM)), the “effect of exogenous copper on growth inhibition” value was “copper impaired the activity only at low concentrations”. For the same molecule, the “effect of exogenous zinc on growth inhibition” value in the data set on HT-29 cells (ZnCl2 (100 μM)) is “zinc impaired the growth inhibitory activities”. The IC50 in data set [1] (6-7 days, Table 3) came out at 350 nM; in data set [1] (as Example 13, Table 7), 0.35 µg/mL.
